Species: Rattus norvegicus
Assay: Open TG-GATES - Regimen: Single
Type: toxicity, organism-based, Sprague-Dawley
Design: regimen Single, gender Male, age 6 weeks
Conditions: in vivo, po, 0 mg/kg, route gavage, dose level Control; for APTT / Bas / Eos / Fbg / Hb / Lym / MCH / MCHC / MCV / Mono / Neu / PT / Plat / RBC / Ret / WBC: tissue Blood; for KIDNEY_L / KIDNEY_R / KIDNEY_TOTAL: tissue Kidney; for LIVER: tissue Liver; for ALP / ALT / AST / BUN / CRE / Ca / Cl / DBIL / GLC / IP / K / LDH / Na / PL / RALB / TBIL / TC / TG / TP / gamma-GTP: tissue Plasma

Molecule `OCCN1CCN(CCCN2c3ccccc3Sc3ccc(C(F)(F)F)cc32)CC1` [FLUPHENAZINE] has a TERMINAL_BW (3 h) of 199 g, an APTT (3 h) of 16.1 s and a Bas (3 h) of 0%. For the same molecule, the Eos (3 h) was 0.6%, the Fbg (3 h) was 228.2 mg/dL and the Hb (3 h) was 13.1 g/dL. The Lym (3 h) was 80.4%, the MCH (3 h) was 21.2 pg and the MCHC (3 h) was 33%. The MCV (3 h) was 64.3 fL, the Mono (3 h) was 6.8% and the Neu (3 h) was 12.2%. It also gave a PT (3 h) of 12.5 s, a Plat (3 h) of 106.1 x10_4/uL and an RBC (3 h) of 617.6 x10_4/ul. It also gave a Ret (3 h) of 7.6%, a WBC (3 h) of 113.1 x10_2/uL and a KIDNEY_L (3 h) of 0.9 g. It also gave a KIDNEY_R (3 h) of 0.9 g, a KIDNEY_TOTAL (3 h) of 1.9 g and an LIVER (3 h) of 9.6 g. It also gave an ALP (3 h) of 888.6 IU/L, an ALT (3 h) of 34.8 IU/L and an AST (3 h) of 63.4 IU/L. The BUN (3 h) was 13 mg/dL, the CRE (3 h) was 0.5 mg/dL and the Ca (3 h) was 10.9 mg/dL. The Cl (3 h) was 104.2 meq/L, the DBIL (3 h) was 0.006 mg/dL and the GLC (3 h) was 179 mg/dL. It also gave an IP (3 h) of 10.3 mg/dL, a K (3 h) of 5.1 meq/L and an LDH (3 h) of 86.2 IU/L. It also gave a Na (3 h) of 138 meq/L, a PL (3 h) of 154.2 mg/dL and an RALB (3 h) of 3.9 g/dL. The TBIL (3 h) was 0.3 mg/dL, the TC (3 h) was 85.8 mg/dL and the TG (3 h) was 53.6 mg/dL. The TP (3 h) was 5.5 g/dL, the gamma-GTP (3 h) was 1.4 IU/L and the TERMINAL_BW (6 h) was 196.6 g. The APTT (6 h) was 16.4 s, the Bas (6 h) was 0% and the Eos (6 h) was 1%. The Fbg (6 h) was 214.4 mg/dL, the Hb (6 h) was 13 g/dL and the Lym (6 h) was 75.8%. For the same molecule, the MCH (6 h) was 21.6 pg, the MCHC (6 h) was 33.2% and the MCV (6 h) was 65.1 fL. The Mono (6 h) was 8.2%, the Neu (6 h) was 15.4% and the PT (6 h) was 12.8 s. The Plat (6 h) was 108.7 x10_4/uL, the RBC (6 h) was 601.2 x10_4/ul and the Ret (6 h) was 8.4%. For the same molecule, the WBC (6 h) was 105.2 x10_2/uL, the KIDNEY_L (6 h) was 0.9 g and the KIDNEY_R (6 h) was 0.9 g. It also gave a KIDNEY_TOTAL (6 h) of 1.8 g, an LIVER (6 h) of 8.6 g and an ALP (6 h) of 819.6 IU/L. For the same molecule, the ALT (6 h) was 33.6 IU/L, the AST (6 h) was 67.4 IU/L and the BUN (6 h) was 11.2 mg/dL. For the same molecule, the CRE (6 h) was 0.5 mg/dL, the Ca (6 h) was 10.2 mg/dL and the Cl (6 h) was 105.8 meq/L. The DBIL (6 h) was 0.03 mg/dL, the GLC (6 h) was 180.8 mg/dL and the IP (6 h) was 10 mg/dL. It also gave a K (6 h) of 4.7 meq/L, an LDH (6 h) of 93 IU/L and a Na (6 h) of 137 meq/L. The PL (6 h) was 118.2 mg/dL, the RALB (6 h) was 3.6 g/dL and the TBIL (6 h) was 0.4 mg/dL. For the same molecule, the TC (6 h) was 65.8 mg/dL, the TG (6 h) was 36.8 mg/dL and the TP (6 h) was 5.3 g/dL. The gamma-GTP (6 h) was 1.6 IU/L, the TERMINAL_BW (9 h) was 197.8 g and the APTT (9 h) was 16.6 s. The Bas (9 h) was 0%, the Eos (9 h) was 0.8% and the Fbg (9 h) was 220.8 mg/dL. For the same molecule, the Hb (9 h) was 12.6 g/dL, the Lym (9 h) was 77.6% and the MCH (9 h) was 21.7 pg. For the same molecule, the MCHC (9 h) was 33.1%, the MCV (9 h) was 65.6 fL and the Mono (9 h) was 9%. For the same molecule, the Neu (9 h) was 13.2%, the PT (9 h) was 12.5 s and the Plat (9 h) was 111.9 x10_4/uL. It also gave an RBC (9 h) of 581.6 x10_4/ul, a Ret (9 h) of 8.6% and a WBC (9 h) of 107.8 x10_2/uL. The KIDNEY_L (9 h) was 0.9 g, the KIDNEY_R (9 h) was 0.9 g and the KIDNEY_TOTAL (9 h) was 1.9 g. It also gave an LIVER (9 h) of 8.6 g, an ALP (9 h) of 831.6 IU/L and an ALT (9 h) of 29.2 IU/L. For the same molecule, the AST (9 h) was 58.8 IU/L, the BUN (9 h) was 11.8 mg/dL and the CRE (9 h) was 0.5 mg/dL. It also gave a Ca (9 h) of 10.3 mg/dL, a Cl (9 h) of 103.8 meq/L and a DBIL (9 h) of 0.012 mg/dL. The GLC (9 h) was 186.4 mg/dL, the IP (9 h) was 10.2 mg/dL and the K (9 h) was 4.6 meq/L. It also gave an LDH (9 h) of 86.4 IU/L, a Na (9 h) of 137.2 meq/L and a PL (9 h) of 145 mg/dL. The RALB (9 h) was 3.7 g/dL, the TBIL (9 h) was 0.3 mg/dL and the TC (9 h) was 84.6 mg/dL. The TG (9 h) was 46.8 mg/dL, the TP (9 h) was 5.4 g/dL and the gamma-GTP (9 h) was 1.2 IU/L. The TERMINAL_BW (24 h) was 211.2 g, the APTT (24 h) was 16.8 s and the Bas (24 h) was 0%. It also gave an Eos (24 h) of 0.2%, a Fbg (24 h) of 217.6 mg/dL and a Hb (24 h) of 12.9 g/dL. For the same molecule, the Lym (24 h) was 80.8%, the MCH (24 h) was 22.4 pg and the MCHC (24 h) was 33.4%. For the same molecule, the MCV (24 h) was 67.1 fL, the Mono (24 h) was 7.4% and the Neu (24 h) was 11.4%. It also gave a PT (24 h) of 12 s, a Plat (24 h) of 113.4 x10_4/uL and an RBC (24 h) of 574.6 x10_4/ul. It also gave a Ret (24 h) of 8%, a WBC (24 h) of 137.9 x10_2/uL and a KIDNEY_L (24 h) of 0.9 g. It also gave a KIDNEY_R (24 h) of 1 g, a KIDNEY_TOTAL (24 h) of 1.9 g and an LIVER (24 h) of 10.7 g. For the same molecule, the ALP (24 h) was 951.8 IU/L, the ALT (24 h) was 38.6 IU/L and the AST (24 h) was 69.6 IU/L. The BUN (24 h) was 18.8 mg/dL, the CRE (24 h) was 0.5 mg/dL and the Ca (24 h) was 11.1 mg/dL. For the same molecule, the Cl (24 h) was 104.2 meq/L, the DBIL (24 h) was 0.012 mg/dL and the GLC (24 h) was 183.8 mg/dL. It also gave an IP (24 h) of 8.8 mg/dL, a K (24 h) of 4.9 meq/L and an LDH (24 h) of 107.4 IU/L. It also gave a Na (24 h) of 137.4 meq/L, a PL (24 h) of 160.8 mg/dL and an RALB (24 h) of 4 g/dL. It also gave a TBIL (24 h) of 0.3 mg/dL, a TC (24 h) of 80 mg/dL and a TG (24 h) of 134.2 mg/dL. It also gave a TP (24 h) of 5.8 g/dL and a gamma-GTP (24 h) of 1.8 IU/L.

— ChEMBL document CHEMBL3885861, “Open TG-GATES”
